≈ marks a conversion by molar mass, not a printed value. Where “and” joins values, the source holds several entries; their conditions need not be identical. Equal values may be shown once. Read-outs that look alike come from different tables or passages of the source.
Columns and labels:
[1] = system: Cryptococcus neoformans H99 ATCC 208821; assay: Minimum inhibitory concentration (MIC) test against fungi; format: cell-based; conditions: Cryptococcus neoformans, ATCC208821, 72 h, ≥50% growth inhibition by eye, three independent experiments, read-out: MIC
Experimental: (§1) To test the minimum inhibitory concentration (MIC) and minimum effective concentration (MEC) of the drug against fungi.
Cryptococcus neoformans H99 ATCC 208821;
(§2) Test medium: RPMI1640 (containing 0.165 M MOPS, pH7.0)
(§3) On the day of the experiment, the compound in the bottle was dissolved in 100% DMSO to a stock solution concentration of 6.24 mg/mL. Then, the mixture was 10-fold diluted with DMSO to 0.624 mg/mL for use.
(§4) A 2-fold gradient dilution of the compound solution (0.624 mg/mL) was performed using DMSO on a 96-microwell plate (V-bottom) to obtain 100× working solutions (wells 1 to 11). 624, 312, 156, 78, 39, 20, 10, 5, 2.5, 1.25, 0.625 μg/mL. 100% DMSO was used as a positive control (well 12). This was the compound stock plate.
Cryptococcus neoformans H99 ATCC 208821 frozen at −80° C. was streaked on SDA plates and incubated aerobically in a 35±2° C. incubator for 48 hours.
(§5) On the day of the experiment, for strains Candida parapsilosis ATCC 22019, Candida albicans ATCC MYA-2876; Candida albicans WX-CA009; Candida glabrata ATCC15126; Candida tropicalis ATCC 750 and Cryptococcus neoformans H99 ATCC 208821, the plates were taken out and the clones on the plates were picked, suspended in normal saline, and then the turbidity of the fungal suspension was adjusted to OD600=0.2 using a turbidimeter. The fungal suspension contained about 3.0×10^6 CFU/mL. Then the turbidity-adjusted fungal suspension was diluted with a test medium to a concentration of about 3.0×10^3 CFU/mL. This was the inoculum.
(§6) 2 μL of 100× working solution from the compound stock plate (prepared in 3.1) was transferred to a round-bottomed 96-well plate (containing 98 μL of test medium), and then 100 μL of fungus inoculum (prepared in 3.2) was added to each well to obtain a MIC test plate. Therefore, the final test concentrations of the compounds were 6.24, 3.12, 1.56, 0.78, 0.39, 0.20, 0.10, 0.05, 0.025, 0.0125, 0.006 μg/mL. 1% DMSO was used as a growth control.
For Cryptococcus neoformans H99 ATCC 208821, all test plates were incubated aerobically in a 35±2° C. incubator for 72 hours.
(§7) After incubation, according to the criteria in Table 1 below, the test plate was observed by eye or microscope to determine the MIC (g/mL) and MEC (g/mL) of the test compound against yeast and mold.

[2] = Mouse pharmacokinetic evaluation, intraperitoneal injection after oral ABT; format: in vivo; conditions: ip, female CD-1 mice, ABT 50 mg/kg orally 2 hours before, plasma; for AUC: read-out: Concentration Integral AUC; for Cmax: read-out: Peak Concentration Cmax; for Tmax: read-out: Peak Time Tmax
Description: Experimental Purpose: Using female CD-1 mice as test animals, LC/MS/MS was used to measure the plasma drug concentration at different times after intraperitoneal injection of the test compound. To study the pharmacokinetic behavior of the test compound in mice and evaluate its pharmacokinetic characteristics. Drug preparation: An appropriate amount of sample was weighed and then prepared into a clear or suspended solution. Administration scheme: Two healthy female CD-1 mice were taken, purchased from Beijing Vital River Laboratory Animal Technology Co., Ltd., and given a normal diet. The drug was administered through intraperitoneal injection. Operational steps: 2 hours before administration, 1-aminobenzotriazole (ABT) was orally administered (50 mg/kg, 5 mg/mL in normal saline), and after animal administration, about 30 μL of blood was collected at 0.083, 0.25, 0.5, 1, 2, 4, 8, and 24 hours, and placed in commercially available anticoagulant tubes pre-added with EDTA-K2. The tubes were centrifuged for 10 minutes to separate the plasma, and the plasma was stored at −60° C. The content of the target compound in the plasma sample was determined by LC/MS/MS method, and the experimental results are shown in Table 3.

[3] = system: Candida albicans WX-CA009; assay: Minimum inhibitory concentration (MIC) test against fungi; format: cell-based; conditions: ≥50% growth inhibition by eye, three independent experiments
Experimental: as §1
(§8) Experimental strains: Candida parapsilosis ATCC 22019; Candida albicans ATCC MYA-2876; Candida albicans WX-CA009; Candida glabrata ATCC15126; Candida tropicalis ATCC 750;
as §2, §3, §4
(§9) Candida parapsilosis ATCC 22019 and Candida albicans ATCC MYA-2876; Candida albicans WX-CA009; Candida glabrata ATCC15126; Candida tropicalis ATCC 750 frozen at −80° C. were streaked on SDA plates and incubated aerobically in a 35±2° C. incubator for 24 hours.
as §5, §6
(§10) For strains Candida parapsilosis ATCC 22019; Candida albicans ATCC MYA-2876; Candida albicans WX-CA009; Candida glabrata ATCC15126; Candida tropicalis ATCC 750, all test plates were incubated aerobically in a 35±2° C. incubator for 24 hours.
as §7

[4] = system: Candida albicans ATCC MYA-2876; assay: as above; format: cell-based; conditions: ≥50% growth inhibition by eye, three independent experiments
Experimental: as §1, §8, §2, §3, §4, §9, §5, §6, §10, §7

[5] = system: Candida tropicalis ATCC 750; assay: as above; format: cell-based; conditions: ≥50% growth inhibition by eye, three independent experiments
Experimental: as §1, §8, §2, §3, §4, §9, §5, §6, §10, §7

[6] = system: Candida parapsilosis ATCC 22019; assay: as above; format: cell-based; conditions: Lodderomyces parapsilosis, ATCC22019, 24 h, ≥50% growth inhibition by eye, three independent experiments (1st, 2nd, 3rd time), read-out: MIC
Experimental: as §1, §8, §2, §3, §4, §9, §5, §6, §10, §7

[7] = system: Candida glabrata ATCC15126; assay: as above; format: cell-based; conditions: Nakaseomyces glabratus, ATCC15126, 24 h, ≥50% growth inhibition by eye, three independent experiments, read-out: MIC
Experimental: as §1, §8, §2, §3, §4, §9, §5, §6, §10, §7

[8] = system: Aspergillus flavus ATCC MYA-1004; assay: Minimum effective concentration (MEC) test against fungi; format: cell-based; conditions: change of hyphae morphology by microscope, 48 hours, three independent experiments
Experimental: as §1
(§11) Aspergillus fumigatus ATCC-MYA-4609; Aspergillus flavus ATCC MYA-1004
as §2, §3, §4
(§12) Aspergillus fumigatus ATCC-MYA-4609; Aspergillus flavus ATCC MYA-1004 frozen at −80° C. were streaked on SDA plates and incubated aerobically in a 30±2° C. incubator for 6 days.
(§13) For strains Aspergillus fumigatus ATCC MYA-4609; Aspergillus flavus ATCC MYA-1004, after taking out the plate, 3 mL of 0.9% normal saline containing 0.1% Tween20 was added to the plate and the spores were gently collected. The spores were counted with a hemocytometer and the spore suspension was adjusted to about 5×10^6 spores/mL. Then the spore suspension was diluted to 0.8 to 1×10^5 spores/mL with a test medium.
as §6
(§14) For mold strains Aspergillus fumigatus ATCC-MYA-4609 and Aspergillus flavus ATCC MYA-1004, all test plates were incubated aerobically in a 35±° C. incubator for 48 hours.
as §7

[9] = system: Aspergillus fumigatus ATCC-MYA-4609; assay: as above; format: cell-based; conditions: change of hyphae morphology by microscope, 48 hours, three independent experiments
Experimental: as §1, §11, §2, §3, §4, §12, §13, §6, §14, §7

[10] = system: Candida albicans ATCC MYA-2876; assay: Mouse candidemia efficacy model; format: in vivo; conditions: female CD-1 mice infected with Candida albicans ATCC MYA-2876; 26 mg/kg intraperitoneally once a day for 7 days after 50 mg/kg ABT orally; n=5
Experimental: Experimental animals: female CD-1 mice, 7 weeks old, 27 to 29 g, n=5 or 8;
microbial pathogen: Candida albicans ATCC MYA-2876;
inoculation level and route: 2.0 to 4.0E+05 CFU/mouse, infected by tail vein injection;
treatment: The treatment started at 1 hour after infection. Firstly, ABT was administered orally, and 2 hours later, the test compound was injected intraperitoneally once a day for 7 days in total, with an administration volume of 10 mL/kg.
Observation indicators: Changes in body weight and mortality within 7 days after infection in each group of mice.

[11] = Pharmacokinetic evaluation in rats (IV, PO); format: in vivo, Sprague-Dawley strain rats; conditions: rat plasma
Description: (§15) Experimental Purpose: To evaluate the druggability of the compounds by measuring its pharmacokinetic properties in different animal species.
(§16) Experimental materials: CD-1 mice, Sprague-Dawley strain rats, beagle dogs, and crab-eating macaques.
(§17) Drug preparation: An appropriate amount of sample was weighed and then prepared into a clear or suspended solution.
(§18) Experimental procedure: The animal pharmacokinetic characteristics after intravenous injection and oral administration of the compound were tested using a standard protocol. The candidate compound was prepared as a clear solution (for intravenous injection) or a homogeneous suspension (for oral administration) during the experiment and administered to the animals as a single dose. Whole blood samples were collected at 0.083, 0.25, 0.5, 1, 2, 4, 8, and 24 hours, centrifuged at 3200 g for 10 minutes to separate the supernatant to obtain plasma samples. The plasma concentration was quantitatively analyzed by LC-MS/MS analysis method and pharmacokinetic parameters were calculated, such as peak concentration, peak time, clearance rate, half-life, area under the drug-time curve, etc.

[12] = Pharmacokinetic evaluation in dogs (IV, PO); format: in vivo, beagle dogs; conditions: dog plasma
Description: as §15, §16, §17, §18

in vivo = assay: in vivo; design: species or system crab-eating macaques
Description: as §15, §16, §17, §18

[13] = Candida albicans, WXCA009, 24 h, read-out: MIC
[14] = Candida albicans, 24 h, read-out: MIC
[15] = Candida tropicalis, ATCC750, 24 h, read-out: MIC

Row | SMILES | MIC [1] | AUC ([2]; 6 mpk) | Cmax ([2]; 6 mpk) | Tmax ([2]; 6 mpk) | MIC [3, 13] | MIC [4, 14] | MIC [5, 15] | MIC [6] | MIC [7] | MEC [8] | MEC [9] | protection from death caused by candidemia [10] | other results
1 | Cc1cc(C#CCc2ccc(COc3ccccn3)cc2)cnc1N [WX007] | 1.56 µg/mL (≈ 4.74 µM) | 64 µM·h | 4.7 µM | 1.5 h | 0.05 µg/mL (≈ 0.152 µM) | 0.1 µg/mL (≈ 0.304 µM) | 0.05 µg/mL (≈ 0.152 µM) | 0.1 µg/mL (≈ 0.304 µM) | 0.78 µg/mL (≈ 2.37 µM) | 0.39 µg/mL | 0.39 µg/mL |  | 
2 | Nc1ccc(C#CCc2ccc(Oc3cccc(F)n3)cc2)cn1 [WX009] | 0.025 µg/mL (≈ 0.0783 µM) | 67 µM·h | 11.4 µM | 0.75 h | 0.05 µg/mL (≈ 0.157 µM) | 0.05 µg/mL (≈ 0.157 µM) | 0.1 µg/mL (≈ 0.313 µM) | 0.05 µg/mL (≈ 0.157 µM) | 0.78 µg/mL (≈ 2.44 µM) | 0.39 µg/mL | 0.39 µg/mL | completely protect | 
3 | Nc1ccc(C#CCc2ccc(COc3ccccn3)cc2)c[n+]1COP(=O)(O)O [WX013] |  |  |  |  |  |  |  |  |  |  |  |  | time to complete decomposition into the parent drug WX004 [11]: ≤ 0.5 h; time to complete decomposition into the parent drug WX004 [12]: ≤ 0.5 h; time to complete decomposition into the parent drug WX004 (in vivo; crab-eating macaque, crab-eating macaque (monkey)): ≤ 0.5 h; F % (in vivo; monkey, po, 13.5 mg/kg): 89%
4 | Cc1nc(N)ccc1C#CCc1ccc(COc2ccccn2)cc1 [WX006] | 0.78 µg/mL (≈ 2.37 µM) |  |  |  | 0.05 µg/mL (≈ 0.152 µM) | 0.025 µg/mL (≈ 0.0759 µM) | 0.0125 µg/mL (≈ 0.0379 µM) | 0.05 µg/mL (≈ 0.152 µM) | 0.39 µg/mL (≈ 1.18 µM) | 0.39 µg/mL and 0.2 µg/mL | 0.1 µg/mL and 0.05 µg/mL | completely protect | AUC ([2]; 26 mpk): 221 µM·h; Cmax ([2]; 26 mpk): 23 µM; Tmax ([2]; 26 mpk): 1.5 h; MIC ([3]; 24 hours): 0.025 µg/mL (≈ 0.0759 µM); MIC ([4]; 24 hours): 0.0125 µg/mL (≈ 0.0379 µM); MIC ([5]; 24 hours): 0.025 µg/mL (≈ 0.0759 µM)

Source: patent US12492169B2, “Aminopyridine compound and application thereof” (priority 2020, dated 2025)
